Laboratory results reported in patent publication US9302999B2, “Substituted triazoles as herbicides” (E. I. DU PONT DE NEMOURS AND COMPANY, priority 2012, dated 2016).
Like-named read-outs stand apart in the source and are kept apart here.

Columns and labels:
Format in all cases: in vivo
[1] = test system: soybean (Glycine max); assay: Test C pre-/postemergence: soybean
Method in brief: (§1)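 Preemergence on seeds in loam/sand, postemergence on 2–18 cm (1–4-leaf) plants in peat-based medium; compounds in non-phytotoxic solvent with surfactant. After 13–15 days in greenhouse, visual rating versus controls, 0 (no effect) to 100 (complete control).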

[2] = test system: winter wheat (Triticum aestivum); assay: Test C pre-/postemergence: winter wheat
Text: (§2) Seeds of plant species selected from blackgrass (Alopecurus myosuroides), bromegrass, downy (downy bromegrass, Bromus tectorum), foxtail, green (green foxtail, Setaria viridis), ryegrass, Italian (Italian ryegrass, Lolium multiflorum), winter wheat (Triticum aestivum), wild oat (Avena fatua), galium (catchweed bedstraw, Galium aparine), bermudagrass (Cynodon dactylon), surinam grass (Brachiaria decumbens), cocklebur (common cocklebur, Xanthium strumarium), corn (Zea mays), large crabgrass (Digitaria sanguinalis), woolly cupgrass (Eriochloa villosa), foxtail, giant (giant foxtail, Setaria faberii), goosegrass (Eleusine indica), johnsongrass (Sorghum halepense), kochia (Kochia scoparia), lambsquarters (Chenopodium album), morningglory (Ipomoea coccinea), nightshade (eastern black nightshade, Solanum ptycanthum), nutsedge, yellow (yellow nutsedge, Cyperus esculentus), pigweed (Amaranthus retroflexus), ragweed (common ragweed, Ambrosia elation), soybean (Glycine max), common (oilseed) sunflower (Helianthus annuus), Russian thistle (Salsola kali) and velvetleaf (Abutilon theophrasti) were planted into a blend of loam soil and sand and treated preemergence with test chemicals formulated in a non-phytotoxic solvent mixture which included a surfactant.
(§3) At the same time, plants selected from these crop and weed species and also barley (winter barley, Hordeum vulgare), canarygrass (Phalaris minor), chickweed (common chickweed, Stellaria media) windgrass (Apera spica-venti) and deadnettle (henbit deadnettle, Lamium amplexicaule) were planted in pots containing Redi-Earth® planting medium (Scotts Company, 14111 Scottslawn Road, Marysville, Ohio 43041) comprising spaghnum peat moss, vermiculite, wetting agent and starter nutrients and treated with postemergence applications of test chemicals formulated in the same manner. Plants ranged in height from 2 to 18 cm (1- to 4-leaf stage) for postemergence treatments.
(§4) Treated plants and controls were maintained in a greenhouse for 13 to 15 days, after which time all species were compared to controls and visually evaluated. Plant response ratings, summarized in Table C, are based on a scale of 0 to 100 where 0 is no effect and 100 is complete control. A dash (-) response means no test result.

[3] = test system: barnyardgrass (Echinochloa crus-galli); assay: Test A pre-/postemergence: barnyardgrass; details: for Barnyardgrass plant response rating: 1000 g ai/ha; for pest or weed control at 125 g/ha / pest or weed control at 500 g/ha: Echinochloa crus-galli, 240 h; for pest or weed control at 125 g/ha: 125 g ai/ha; for pest or weed control at 500 g/ha: 500 g ai/ha
Method in brief: (§5)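 Seeds were sown in loam/sand blend and sprayed preemergence (directed soil spray) and, simultaneously, postemergence at 2–10 cm, one- to two-leaf stage, using compounds in non-phytotoxic solvent with surfactant. After ~10 days in greenhouse, injury was rated visually versus untreated controls, 0 (no effect) to 100 (complete control).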

[4] = test system: ryegrass, Italian (Italian ryegrass, Lolium multiflorum); assay: Test C pre-/postemergence: ryegrass, Italian
Method in brief: as §1

[5] = test system: pigweed (Amaranthus retroflexus); assay: Test A pre-/postemergence: pigweed; details: for Pigweed plant response rating: 1000 g ai/ha; for pest or weed control at 125 g/ha / pest or weed control at 500 g/ha: Amaranthus retroflexus, 240 h; for pest or weed control at 125 g/ha: 125 g ai/ha; for pest or weed control at 500 g/ha: 500 g ai/ha
Method in brief: as §5

[6] = test system: wheat (Triticum aestivum); assay: Test A pre-/postemergence: wheat; details: for Wheat plant response rating: 1000 g ai/ha; for plant injury at 125 g/ha / plant injury at 500 g/ha: Triticum aestivum, 240 h; for plant injury at 125 g/ha: 125 g ai/ha; for plant injury at 500 g/ha: 500 g ai/ha
Method in brief: as §5

[7] = test system: pigweed (Amaranthus retroflexus); assay: Test C pre-/postemergence: pigweed
Text: as §2, §3, §4

[8] = test system: lambsquarters (Chenopodium album); assay: Test C pre-/postemergence: lambsquarters
Method in brief: as §1

[9] = Postemergence, 31 g ai/ha, scale 0 to 100 (0 no effect, 100 complete control)
[10] = Postemergence, 62 g ai/ha, scale 0 to 100 (0 no effect, 100 complete control)
[11] = Postemergence, 125 g ai/ha, scale 0 to 100, 0 no effect, 100 complete control
[12] = Postemergence, 250 g ai/ha, scale 0 to 100
[13] = Preemergence, 31 g ai/ha, scale of 0 to 100, 0 is no effect, 100 is complete control
[14] = Preemergence, 62 g ai/ha, scale of 0 to 100, 0 is no effect, 100 is complete control
[15] = Preemergence, 125 g ai/ha, scale 0 to 100, 0 no effect, 100 complete control
[16] = Preemergence, 250 g ai/ha, scale 0 to 100, 0 no effect, 100 complete control
[17] = Postemergence, visual rating on 0 to 100 scale (0 no effect, 100 complete control), approximately ten days
[18] = Preemergence, 0 to 100 scale, 0 is no effect, 100 is complete control

Cc1nn(-c2ccc(C(F)(F)F)cn2)nc1Cc1cccc(C(F)(F)F)c1 [Compound 106]
Plant response rating, Soybean [1, 9]: 10 | Plant response rating, Soybean [1, 10]: 15 | Plant response rating, Soybean [1, 11]: 60 | Plant response rating, Soybean [1, 12]: 65 | Plant response rating, Soybean [1, 13]: 0 | Plant response rating, Soybean [1, 14]: 0 | Plant response rating, Soybean [1, 15]: 5 | Plant response rating, Soybean [1, 16]: 5 | Plant response rating, Wheat [2, 9]: 10 | Plant response rating, Wheat [2, 10]: 30 | Plant response rating, Wheat [2, 11]: 30 | Plant response rating, Wheat [2, 13]: 0 | Plant response rating, Wheat [2, 14]: 0 | Plant response rating, Wheat [2, 15]: 0 | Plant response rating, Wheat [2, 16]: 5 | Barnyardgrass plant response rating [3, 17]: 40 | Barnyardgrass plant response rating [3, 18]: 50 | Plant response rating, Ryegrass, Italian [4, 9]: 5 | Plant response rating, Ryegrass, Italian [4, 10]: 5 | Plant response rating, Ryegrass, Italian [4, 11]: 20 | Plant response rating, Ryegrass, Italian [4, 12]: 30 | Plant response rating, Ryegrass, Italian [4, 13]: 5 | Plant response rating, Ryegrass, Italian [4, 14]: 20 | Plant response rating, Ryegrass, Italian [4, 15]: 45 | Plant response rating, Ryegrass, Italian [4, 16]: 50 | Pigweed plant response rating [5, 17]: 100 | Pigweed plant response rating [5, 18]: 90 | Wheat plant response rating [6, 17]: 10 | Wheat plant response rating [6, 18]: 0 | Plant response rating, Pigweed [7, 9]: 95 | Plant response rating, Pigweed [7, 10]: 98 | Plant response rating, Pigweed [7, 11]: 98 | Plant response rating, Pigweed [7, 12]: 98 | Plant response rating, Pigweed [7, 13]: 85 | Plant response rating, Pigweed [7, 14]: 98 | Plant response rating, Pigweed [7, 15]: 100 | Plant response rating, Pigweed [7, 16]: 100 | Plant response rating, Lambsquarters [8, 9]: 80 | Plant response rating, Lambsquarters [8, 10]: 100 | Plant response rating, Lambsquarters [8, 11]: 100 | Plant response rating, Lambsquarters [8, 12]: 100 | Plant response rating, Lambsquarters [8, 13]: 85 | Plant response rating, Lambsquarters [8, 14]: 100 | Plant response rating, Lambsquarters [8, 15]: 100 | Plant response rating, Lambsquarters [8, 16]: 100

FC(F)(F)COc1nn(-c2ccc(C(F)(F)F)cc2)nc1Cc1ccnc(C(F)(F)F)c1 [Compound 14, 4-[[5-(2,2,2-trifluoroethoxy)-2-[4-(trifluoromethyl)phenyl]-2H-1,2,3-triazol-4-yl]methyl]-2-(trifluoromethyl)pyridine]
Plant response rating, Soybean [1, 9]: 25 | Plant response rating, Soybean [1, 10]: 25 | Plant response rating, Soybean [1, 11]: 30 | Plant response rating, Soybean [1, 12]: 35 | Plant response rating, Soybean [1, 13]: 0 | Plant response rating, Soybean [1, 14]: 0 | Plant response rating, Soybean [1, 15]: 0 | Plant response rating, Soybean [1, 16]: 0 | Plant response rating, Wheat [2, 9]: 30 | Plant response rating, Wheat [2, 10]: 35 | Plant response rating, Wheat [2, 11]: 40 | Plant response rating, Wheat [2, 12]: 45 | Plant response rating, Wheat [2, 13]: 0 | Plant response rating, Wheat [2, 14]: 15 | Plant response rating, Wheat [2, 15]: 35 | Plant response rating, Wheat [2, 16]: 45 | pest or weed control at 125 g/ha ([3]; post-emergence, Postemergence, 0 to 100 scale, 0 is no effect, 100 is complete control, read-out: Barnyardgrass plant response rating): 80% | pest or weed control at 500 g/ha ([3]; post-emergence, Postemergence, visual rating on 0 to 100 scale (0 no effect, 100 complete control), approximately ten days, read-out: Barnyardgrass plant response rating): 90% | pest or weed control at 125 g/ha ([3]; pre-emergence, Preemergence, 0 to 100 scale (0 no effect, 100 complete control), read-out: Plant response rating, Barnyardgrass): 70% | pest or weed control at 500 g/ha ([3]; pre-emergence, Preemergence, 0 to 100 scale, 0 is no effect, 100 is complete control, read-out: Plant response rating, Barnyardgrass): 90% | Plant response rating, Ryegrass, Italian [4, 9]: 30 | Plant response rating, Ryegrass, Italian [4, 10]: 35 | Plant response rating, Ryegrass, Italian [4, 11]: 35 | Plant response rating, Ryegrass, Italian [4, 12]: 40 | Plant response rating, Ryegrass, Italian [4, 13]: 10 | Plant response rating, Ryegrass, Italian [4, 14]: 35 | Plant response rating, Ryegrass, Italian [4, 15]: 60 | Plant response rating, Ryegrass, Italian [4, 16]: 85 | pest or weed control at 125 g/ha ([5]; post-emergence, Postemergence, 0 to 100 scale, 0 is no effect, 100 is complete control, read-out: Pigweed plant response rating): 100% | pest or weed control at 500 g/ha ([5]; post-emergence, Postemergence, visual rating on 0 to 100 scale (0 no effect, 100 complete control), approximately ten days, read-out: Pigweed plant response rating): 100% | pest or weed control at 125 g/ha ([5]; pre-emergence, Preemergence, 0 to 100 scale (0 no effect, 100 complete control), read-out: Plant response rating, Pigweed): 90% | pest or weed control at 500 g/ha ([5]; pre-emergence, Preemergence, 0 to 100 scale, 0 is no effect, 100 is complete control, read-out: Plant response rating, Pigweed): 100% | plant injury at 125 g/ha ([6]; post-emergence, Postemergence, 0 to 100 scale, 0 is no effect, 100 is complete control, read-out: Wheat plant response rating): 30% | plant injury at 500 g/ha ([6]; post-emergence, Postemergence, visual rating on 0 to 100 scale (0 no effect, 100 complete control), approximately ten days, read-out: Wheat plant response rating): 50% | plant injury at 125 g/ha ([6]; pre-emergence, Preemergence, 0 to 100 scale (0 no effect, 100 complete control), read-out: Plant response rating, Wheat): 30% | plant injury at 500 g/ha ([6]; pre-emergence, Preemergence, 0 to 100 scale, 0 is no effect, 100 is complete control, read-out: Plant response rating, Wheat): 50% | Plant response rating, Pigweed [7, 9]: 45 | Plant response rating, Pigweed [7, 10]: 60 | Plant response rating, Pigweed [7, 11]: 80 | Plant response rating, Pigweed [7, 12]: 85 | Plant response rating, Pigweed [7, 13]: 100 | Plant response rating, Pigweed [7, 14]: 100 | Plant response rating, Pigweed [7, 15]: 100 | Plant response rating, Pigweed [7, 16]: 100 | Plant response rating, Lambsquarters [8, 9]: 100 | Plant response rating, Lambsquarters [8, 10]: 100 | Plant response rating, Lambsquarters [8, 11]: 100 | Plant response rating, Lambsquarters [8, 12]: 100 | Plant response rating, Lambsquarters [8, 13]: 95 | Plant response rating, Lambsquarters [8, 14]: 100 | Plant response rating, Lambsquarters [8, 15]: 100 | Plant response rating, Lambsquarters [8, 16]: 100
